This is an account of results in US10364277B2, “Diagnosis and treatment of autoimmune diseases” (NewSouth Innovations Pty Limited, priority 2013, dated 2019).

Entries after “also recorded” stand apart in the source; their conditions may differ. Marks after values point to notes of the source that are not given here. Ends that are not written are not given here.

Test [1] concerns the target HLAB*2705 (Homo sapiens, UniProt P01889, D138H/D201E/E176V/E204Q/G107R/H137Y/K202T/N104T/N87E/Q56L/Q94K/R106L/R155S/R180L/S101D/S121N/S48T/Y140D/Y33H/Y91C). As to the kind of experiment: REVEAL MHC-peptide binding assay. Conditions: for % Positive Control: REVEAL binding score relative to positive control peptide, pass threshold ≥45%.
The subject of test [2] is T cells of patients with AS. Conditions: known from Kuon et al. 1997; cited from earlier work.
Test [3] relates to Lewis rats. Nature of the test: Immunization of Lewis rats with peptide in CFA (uveitis/arthritis). In kind it is in vivo, rat. More on the design: histol Average / Arthritis Total: scale not given here. Conditions: for Arthritis Total / Arthritis day 25 / incidence / histol Average: 50 μg peptide/animal; for clin uveitis: 6 Lewis rats, 50 μg peptide/animal s.c. in CFA; for incidence: eyes with histological findings / eyes scored; for histol Average: histological uveitis score of eyes; for animals immunised that developed arthritis: groups of 6 animals, not HLA-B27 transgenics. As to the method:
Animals: Lewis rats, age 6 weeks,
Peptides were emulsified (sonification) in CFA (50:50, CFA:Peptid) supplemented with M Tuberculosis H37RA (BD, Heidelberg, Germany) to a final concentration of 2.5 mg/ml
Peptide is injected s.c. in both hindlegs, 50 μg peptide/200 μl emulsion, 100 μl/leg,
Group size: 6 animals, 3 groups
7 days post immunization animals were examined daily (eyes and feet)
Eyes were embedded in tissue tec and frozen at −80 degree.
8 μm cryo section were stained with hematoxilin and graded.

For test [4], the system named is Rats. As to the kind of experiment: Induction of oral tolerance in rats. It counts as in vivo, rat. As to conditions: for affected joints / average score/animal / incidence: 4 rats.
For test [5], the system named is PBMC. Nature of the test: Ex vivo IFN-γ EliSpot assay. As to conditions: for IFN-γ response to individual peptide compared to the controls: one HLA B27 subject of 2 (B27004, B27007), p<0.001.
[6] abbreviates: PBS-fed 3 x, immunized with 100 μg peptide.
Where [7] appears, read: fed 200 μg peptide 3 x, immunized with 100 μg of the same peptide.

For the molecule “9 (SRHHAFCFR; Aggrecan peptide fragment) [Peptide 9]”, the “% Positive Control” value in test [1] worked out at 0.02%. Also, the “stimulation of T cells of patients with AS” value in test [2] was “stimulate T cells of patients with AS”.

As to “KRFNALQYL [human lumican residues 226-234]”, the “% Positive Control” value in test [1] was 0.24%. In addition, the “binding relative to the positive control peptides” value in test [1] (in vitro MHC-peptide binding assay, HLA-B2705) is “significant binding”. Also, in test [3], the “Arthritis Total” value came out at 3, the clin uveitis is listed as 0, the “Arthritis day 25” value is recorded as 0 and the incidence is 3/12. Further, the “histol Average” value in test [3] is given as 0.125.

With 10 (ARGQPGVMG) [Peptide 10], in test [1], the “% Positive Control” value worked out at 1.06%.

NRFSVAYML [Peptide P3]: in test [1], the “% Positive Control” value came out at 0.00%. Further, in test [3], the “Arthritis Total” value was found to be 4, the clin uveitis is 0, the “Arthritis day 25” value turned out to be 2 and the incidence is recorded as 2/12. For the same molecule, the “histol Average” value in test [3] is on record as 0.083. Further, in test [4] (setting [6]), the affected joints is given as 10, the average score/animal was 2.75-3.00 and the incidence is 3/4. In test [4] (compared with P2), the “induction of oral tolerance” value is “induces oral tolerance more effectively than P2”. In addition, in test [4] (setting [7]), the affected joints turned out to be 0, the average score/animal is given as 0 and the incidence is given as 0/4. Further, the “development of arthritis or uveitis” value in test [4] (rats fed with P3 and immunized with P3) was “None of the rats fed with P3 and immunized with P3 developed arthritis or uveitis; also recorded: None of the animals who received P3 had evidence of arthritis or uveitis”.

In the case of ARKLLLDNL [Peptide P2], the “% Positive Control” value in test [1] was 5.26%. Besides, in test [3], the “Arthritis Total” value is recorded as 8, the clin uveitis came to 0, the “Arthritis day 25” value is 8 and the incidence is listed as 5/11*. In addition, in test [3], the “animals immunised that developed arthritis” value was 5/6 and the “histol Average” value is reported as 0.181. In test [4] (setting [6]), the affected joints is given as 3, the average score/animal stood at 1.875 and the incidence was 2/4. Further, in test [4] (setting [7]), the average score/animal worked out at 3.25 and the incidence is given as 1/4. In addition, in test [4] (left eye of rat 1-3, PBS-fed, imm. P2D6), the histological score is 2-3.

Turning to KRLAETLAL [compound 1, KRLAETLAL], the “% Positive Control” value in test [1] is 105.51%.

For “LQNNLIETI (Fragment of keratocan protein)”, the “IFN-γ response to individual peptide compared to the controls” value (“IFN-γ response … compared to the controls” for short) in test [5] is on record as “significant increase in response”.

For the molecule LQYLRLSHN, in test [5], the “IFN-γ response … compared to the controls” value is reported as “significant increase in response”.

As for “QLEDIRLDG (A second opticin protein fragment)”, the “IFN-γ response … compared to the controls” value in test [5] was “significant increase in response”.

Consider “8 (DRASFIKNL; Collagen peptide fragment) [Peptide 8]”, for which, in test [1], the “% Positive Control” value turned out to be 0.04%. Moreover, in test [2], the “stimulation of T cells of patients with AS” value is listed as “stimulate T cells of patients with AS”.

B1: Lumican: whole recombinant human lumican (protein, UniProt P51884 19-338, looked up)
Lumican: QYYDYDFPLSIYGQSSPNCAPECNCPESYPSAMYCDELKLKSVPMVPPGIKYLYLRNNQIDHIDEKAFENVTDLQWLILDHNLLENSKIKGRVFSKLKQLKKLHINHNNLTESVGPLPKSLEDLQLTHNKITKLGSFEGLVNLTFIHLQHNRLKEDAVSAAFKGLKSLEYLDLSFNQIARLPSGLPVSLLTLYLDNNKISNIPDEYFKRFNALQYLRLSHNELADSGIPGNSFNVSSLVELDLSYNKLKNIPTVNENLENYYLEVNQLEKFDIKSFCKILGPLSYSKIKHLRLDGNRISETSLPPDMYECLRVANEVTLN
Turning to B1, in test [5] (HLA B27 AU patients), the “patients demonstrating increased IFN-γ production” value was 8 of 10. In addition, the “Interferon gamma response, Patients (N = 10)” value in test [5] (number of HLA B27 AU patients responding, PBMC, 24 hours) turned out to be 8. The “Interferon gamma response, Controls (N-6)” value in test [5] (number of healthy controls responding, PBMC, 24 hours) amounted to 2. For the same molecule, the “IFN-γ response of HLA B27 AU patients vs average of healthy controls” value in test [5] (ten patients vs controls n=6, one way ANOVA, Bonferroni, lumican 2.5 μg/mL) is on record as “significant difference”. Also, the “animals immunised that developed arthritis” value in test [3] is listed as “all developed arthritis”.
